In patent US7049069B2, “Detecting and treating reproductive tract disorders” (University of Florida, priority 2001, dated 2006):

How the values were obtained:
Type in all cases: cell-based, human
[1] = system: TNFα receptor type I expression in stromal cells; assay: Effect of IL-13 and IL-15 on TNFα receptor type I expression in stromal cells
Method: (§1) Cells. Uterine tissue was collected and endometrial stromal cells and their culture conditions were isolated as described previously. Tang et al., Endocrinology 135:450, 1994. The isolated glandular epithelial and stromal cells were grown as monolayers in DMEM-Ham's F-12 (1:1, v/v) supplemented with 10% fetal bovine serum (FBS). Their purity and homogeneity were determined immunocytochemically by the use of monoclonal antibodies to human desmin, smooth muscle α-actin, cytokeratin 19 and vimentin.
(§2) To determine whether IL-13 and IL-15 alter the expression of tumor necrosis factor alpha receptor, the stromal and epitheleal cells (isolated as described in Example3) were cultured, made quiescent, and then treated with IL-13 and IL-15 at appropriate concentration added to medium containing 2% cFBS. After specific time intervals the culture condition media were collected and assay for TNF-α receptor type I as previously described (Faber et al., Obstet Gynecol 98:668–673, 2001; Chegini et al., J Soc Gynecol Invest 6. 154–157, 1999) using ELISA and comparison to known concentrations of standard (R & D system).

[2] = system: IL-15 expression in endometrial epithelial cells; assay: Effect of ovarian steroids on IL-15 expression in endometrial epithelial cells (quantitative RT-PCR, ELISA); conditions: for IL-15 expression, mRNA and protein level (summary statement): endometrial epithelial cells; for IL-15 expression: epithelial cells, various time points
Method: (§3) Cells. Uterine tissue was collected and endometrial stromal cells and their culture conditions were isolated as described previously. Tang et al., Endocrinology 135:450, 1994. The isolated glandular epithelial and stromal cells were grown as monolayers in DMEM-Ham's F-12 (1:1, v/v) supplemented with 10% fetal bovine serum (FBS). Their purity and homogeneity were determined immunocytochemically by the use of monoclonal antibodies to human desmin, smooth muscle α-actin, cytokeratin 19 and vimentin. Ovarian Steroids. To determine the effect of ovarian steroids regulate IL-13 and IL-15 expression in endometrial epithelial and stromal cells, cells were subcultured in 6-well dishes at an approximate density of at 10^6 cells/well, and incubated with phenol-free media containing 10% charcoal-stripped FBS for 48 hrs. The cells were made quiescent under a serum-free condition for 24 hrs, and then treated with E2 (17 β estradiol), MPA (medroxyprogesterone acetate) or E2+MPA either alone or in appropriate combinations, added to phenol-free medium containing 2% charcoal-stripped FBS (cFBS) (Hyclone, Logan, Utah). The level of IL-13 and IL-15 mRNA and protein was determined as described above after appropratie time intervals using quantitative RT-PCR and ELISA.

[3] = system: endometrial stromal cells; assay: 3H-thymidine incorporation and cell proliferation (MTT) assay, stromal cells
Method: as §1
(§4) ^3H-Thymidine Incorporation and Cell Proliferation Assay. Endometrial epithelial and stromal cells were cultured either in 24- or 96-well dishes at approximate density of 2.5×10^5 and 2.5×10^4 cell/well, respectively, in the presence of 10% FBS for 48 h, they were then made quiescent in serum-free condition for 48 h as previously described. Tang et al., supra. The quiescent cells were incubated either in serum-free, or 2% FBS supplemented media, in the presence of appropriate concentrations of IL-13 and/or IL-15 and 2 μCi/ml ^3H-thymidine for 48 h. The rate of incorporated ^3H-thymidine determined as previously described. Tang et al., supra. Cell proliferation assays were preformed by seeding epithelial and stromal cells in 96-well microplates or 24 well dishes, respectively, as described above and cultured in the presence of appropriate concentrations of IL-13 and IL-15 in the presence or absence of 2% FBS. After 48 h the cells were washed and incubated with a dye solution composed of 3-(4,5-dimethylthiazol-2-yl)-2,5-diphenyltetrazolium bromide (MTT) for 4 h at 37° C., solubilized using Promega Cell-Titer assay, and the optical density was measured using Thermomax microplate reader (Molecular Devices) at 570 nm as previously described (Tang et al., supra).

[4] = system: endometrial epithelial cells; assay: 3H-thymidine incorporation and cell proliferation (MTT) assay, epithelial cells
Method: as §1, §4

[5] = system: IL-13 expression in endometrial epithelial cells; assay: Effect of ovarian steroids on IL-13 expression in endometrial epithelial cells (quantitative RT-PCR, ELISA); conditions: for IL-13 expression, mRNA and protein level (summary statement): endometrial epithelial cells; for IL-13 expression compared to control cells: epithelial cells
Method: as §3

[6] = system: IL-15 expression in endometrial stromal cells; assay: Effect of ovarian steroids on IL-15 expression in endometrial stromal cells (quantitative RT-PCR, ELISA); conditions: for IL-15 expression, mRNA and protein level (summary statement): endometrial stromal cells; for IL-15 expression: stromal cells, various time points
Method: as §3

[7] = system: IL-13 expression in endometrial stromal cells; assay: Effect of ovarian steroids on IL-13 expression in endometrial stromal cells (quantitative RT-PCR, ELISA); conditions: for IL-13 expression, mRNA and protein level (summary statement): endometrial stromal cells; for IL-13 expression compared to control cells: stromal cells, various time points (e.g. 4, 6, 24 and 36 h after steroid addition)
Method: as §3

[8] = system: TNFα receptor type I expression in epithelial cells; assay: Effect of IL-13 and IL-15 on TNFα receptor type I expression in epithelial cells
Method: as §1, §2

Compound | TNFα receptor type I mRNA expression compared to control cells ([1]; 6 h) | TNFα receptor type I protein expression ([1]; 36 h) | IL-15 expression, mRNA and protein level (summary statement) [2] | IL-15 expression [2] | 3H-thymidine incorporation compared to control cells [3] | cell proliferation compared to control cells [3] | 3H-thymidine incorporation compared to control cells [4] | cell proliferation compared to control cells [4] | IL-13 expression, mRNA and protein level (summary statement) [5] | IL-13 expression compared to control cells ([5]; 24 and 36 h) | IL-13 expression compared to control cells ([5]; 6 h) | IL-15 expression, mRNA and protein level (summary statement) [6] | IL-15 expression [6] | IL-13 expression, mRNA and protein level (summary statement) [7] | IL-13 expression compared to control cells [7] | TNFα receptor type I protein expression ([1]; 24 and 36 h) | TNFα receptor type I mRNA production ([8]; 2, 4 and 6 h) | TNFα receptor type I protein expression ([8]; 36 h)
IL-15: cytokine interleukin-15 added to stromal and epithelial cell cultures | marked increase | statistically significant increase | – | – | – | – | – | – | – | – | – | – | – | – | – | – | – | –
CC(=O)O[C@]1(C(C)=O)CC[C@H]2[C@@H]3C[C@H](C)C4=CC(=O)CC[C@]4(C)[C@H]3CC[C@@]21C [MPA, medroxyprogesterone acetate] | – | – | modulate | statistically significant increase | modulated | modulated | modulated | modulated | modulate | statistically significant increase | statistically significant increase | modulate | statistically significant increase | modulate | statistically significant increase | – | – | –
C[C@]12CC[C@@H]3c4ccc(O)cc4CC[C@H]3[C@@H]1CC[C@@H]2O [E2, 17 β estradiol] | – | – | modulate | statistically significant increase | modulated | modulated | modulated | modulated | modulate | statistically significant increase | – | modulate | statistically significant increase | modulate | statistically significant increase | – | – | –
IL-13: cytokine interleukin-13 added to stromal and epithelial cell cultures | – | – | – | – | – | – | – | – | – | – | – | – | – | – | – | statistically significant increase | increased | statistically significant increase
